What was measured:
barnyardgrass [1] = experiment: Test A pre-/postemergence greenhouse test; format: in vivo, Echinochloa crus-galli; details: for Plant response rating, Barnyardgrass: 0 to 100 scale where 0 is no effect and 100 is complete control; for Barnyardgrass plant response rating: 0 to 100 scale
Summary of the method: (§1)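 Each test compound, dissolved in a non-phytotoxic solvent mixture with surfactant, was sprayed directly onto seeded soil (loam/sand blend) and, at the same moment, onto seedlings carrying one to two leaves. Around ten greenhouse days later, plants were rated visually for injury relative to untreated controls.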

crabgrass = experiment: Test A pre-/postemergence greenhouse test; format: in vivo, Digitaria sanguinalis; details: for Plant response rating, Crabgrass, Large: 0 to 100 scale where 0 is no effect and 100 is complete control; for Crabgrass, Large plant response rating: 0 to 100 scale
Summary of the method: as §1

giant foxtail = experiment: Test A pre-/postemergence greenhouse test; format: in vivo, Setaria faberi; details: for Plant response rating, Foxtail, Giant: 0 to 100 scale where 0 is no effect and 100 is complete control; for Foxtail, Giant plant response rating: 0 to 100 scale
Summary of the method: as §1

morningglory = experiment: Test A pre-/postemergence greenhouse test; format: in vivo, Ipomoea spp.; details: for Plant response rating, Morningglory: 0 to 100 scale where 0 is no effect and 100 is complete control; for Morningglory plant response rating: 0 to 100 scale
Summary of the method: as §1

redroot pigweed = experiment: Test A pre-/postemergence greenhouse test; format: in vivo, Amaranthus retroflexus; details: for Plant response rating, Pigweed: 0 to 100 scale where 0 is no effect and 100 is complete control; for Pigweed plant response rating: 0 to 100 scale
Summary of the method: as §1

velvetleaf = experiment: Test A pre-/postemergence greenhouse test; format: in vivo, Abutilon theophrasti; details: for Plant response rating, Velvetleaf: 0 to 100 scale where 0 is no effect and 100 is complete control; for Velvetleaf plant response rating: 0 to 100 scale
Summary of the method: as §1

wheat = experiment: Test A pre-/postemergence greenhouse test; format: in vivo, Triticum aestivum; details: for Plant response rating, Wheat: 0 to 100 scale where 0 is no effect and 100 is complete control; for Wheat plant response rating: 0 to 100 scale
Summary of the method: as §1

corn = experiment: Test A pre-/postemergence greenhouse test; format: in vivo, Zea mays; details: for Plant response rating, Corn: 0 to 100 scale where 0 is no effect and 100 is complete control; for Corn plant response rating: 0 to 100 scale
Summary of the method: as §1

rice = experiment: Test C flooded paddy test; format: in vivo, Oryza sativa; details: Flood
Summary of the method: (§2)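 Visual injury ratings against untreated controls, taken 13 to 15 days after compound was added to paddy water standing 3 cm above the soil.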

umbrella sedge = experiment: Test C flooded paddy test; format: in vivo, Cyperus difformis; details: Flood
Summary of the method: as §2

duck salad = experiment: Test C flooded paddy test; format: in vivo, Heteranthera limosa; details: Flood
Summary of the method: as §2

barnyardgrass [2] = experiment: Test C flooded paddy test; format: in vivo, Echinochloa crus-galli; details: Flood
Summary of the method: as §2

[3] = Postemergence, 500 g ai/ha, 0 is no effect, 100 is complete control
[4] = Preemergence, 125 g ai/ha, 0 no effect, 100 complete control
[5] = Preemergence, 500 g ai/ha, 0 no effect, 100 complete control
[6] = 62 g ai/ha, scale 0 to 100 (0 no effect, 100 complete control)
[7] = 250 g ai/ha, scale 0 to 100, 0 no effect, 100 complete control, 13 to 15 days
[8] = Postemergence, 125 g ai/ha, 0 is no effect, 100 is complete control
[9] = 31 g ai/ha, scale 0 to 100 (0 no effect, 100 complete control)
[10] = 62 g ai/ha, scale 0 to 100, 0 no effect, 100 complete control, 13 to 15 days
[11] = 125 g ai/ha, scale 0 to 100, 0 no effect, 100 complete control, 13 to 15 days
[12] = 250 g ai/ha, scale 0 to 100 (0 no effect, 100 complete control)

Cc1cc[n+]([O-])c([S+]([O-])Cc2c(C(F)(F)F)nn(C)c2OCC(F)(F)C(F)(F)F)c1 (centres unmarked) [Compound 90]
90: Plant response rating, Crabgrass, Large (crabgrass; Preemergence, 500 g ai/ha) | Morningglory plant response rating (morningglory; [3])
50: Plant response rating, Foxtail, Giant (giant foxtail; Postemergence, 125 g ai/ha) | Corn plant response rating (corn; [3]) | Plant response rating, Corn (corn; Preemergence, 500 g ai/ha)
30: Pigweed plant response rating (redroot pigweed; [3]) | Plant response rating, Corn (corn; Postemergence, 125 g ai/ha)
10: Plant response rating, Pigweed (redroot pigweed; Postemergence, 125 g ai/ha)
100: Plant response rating, Barnyardgrass (barnyardgrass [1]; Preemergence, 500 g ai/ha) | Plant response rating, Foxtail, Giant (giant foxtail; Preemergence, 500 g ai/ha)
40: Crabgrass, Large plant response rating (crabgrass; [4]) | Plant response rating, Pigweed (redroot pigweed; Preemergence, 500 g ai/ha)
80: Crabgrass, Large plant response rating (crabgrass; [3]) | Foxtail, Giant plant response rating (giant foxtail; [3]) | Velvetleaf plant response rating (velvetleaf; [3]) | Wheat plant response rating (wheat; [5])
60: Barnyardgrass plant response rating (barnyardgrass [1]; [3]) | Plant response rating, Morningglory (morningglory; Preemergence, 500 g ai/ha)
20: Plant response rating, Crabgrass, Large (crabgrass; Postemergence, 125 g ai/ha) | Plant response rating, Morningglory (morningglory; Postemergence, 125 g ai/ha) | Plant response rating, Ducksalad (duck salad; [7])
70: Foxtail, Giant plant response rating (giant foxtail; [4]) | Velvetleaf plant response rating (velvetleaf; [5]) | Wheat plant response rating (wheat; [3]) | Plant response rating, Sedge, Umbrella (umbrella sedge; [7])
0: Plant response rating, Barnyardgrass (barnyardgrass [1]; Postemergence, 125 g ai/ha) | Barnyardgrass plant response rating (barnyardgrass [1]; [4]) | Morningglory plant response rating (morningglory; [4]) | Pigweed plant response rating (redroot pigweed; [4]) | Plant response rating, Velvetleaf (velvetleaf; Postemergence, 125 g ai/ha) | Velvetleaf plant response rating (velvetleaf; [4]) | Plant response rating, Wheat (wheat; Postemergence, 125 g ai/ha) | Wheat plant response rating (wheat; [4]) | Corn plant response rating (corn; [4]) | Plant response rating, Rice (rice; [6]) | Plant response rating, Rice (rice; [7]) | Plant response rating, Sedge, Umbrella (umbrella sedge; [6]) | Plant response rating, Ducksalad (duck salad; [6]) | Plant response rating, Barnyardgrass (barnyardgrass [2]; [6]) | Plant response rating, Barnyardgrass (barnyardgrass [2]; [7])

CC(c1c(C(F)(F)F)nn(C)c1Cl)[S+]([O-])c1cccc[n+]1[O-] (mixture of isomers) [Compound 27]
10: Pigweed plant response rating (redroot pigweed; [3])
20: Barnyardgrass plant response rating (barnyardgrass [1]; [8]) | Morningglory plant response rating (morningglory; [3]) | Velvetleaf plant response rating (velvetleaf; [4]) | Plant response rating, Velvetleaf (velvetleaf; Preemergence, 500 g ai/ha) | Wheat plant response rating (wheat; [4]) | Corn plant response rating (corn; [3])
80: Plant response rating, Crabgrass, Large (crabgrass; Preemergence, 500 g ai/ha) | Plant response rating, Foxtail, Giant (giant foxtail; Preemergence, 500 g ai/ha)
60: Foxtail, Giant plant response rating (giant foxtail; [3])
70: Plant response rating, Barnyardgrass (barnyardgrass [1]; Preemergence, 500 g ai/ha)
0: Barnyardgrass plant response rating (barnyardgrass [1]; [4]) | Crabgrass, Large plant response rating (crabgrass; [8]) | Foxtail, Giant plant response rating (giant foxtail; [8]) | Morningglory plant response rating (morningglory; [8]) | Morningglory plant response rating (morningglory; [4]) | Plant response rating, Morningglory (morningglory; Preemergence, 500 g ai/ha) | Pigweed plant response rating (redroot pigweed; [8]) | Pigweed plant response rating (redroot pigweed; [4]) | Plant response rating, Pigweed (redroot pigweed; Preemergence, 500 g ai/ha) | Velvetleaf plant response rating (velvetleaf; [8]) | Velvetleaf plant response rating (velvetleaf; [3]) | Wheat plant response rating (wheat; [8]) | Wheat plant response rating (wheat; [3]) | Corn plant response rating (corn; [8]) | Corn plant response rating (corn; [4]) | Plant response rating, Corn (corn; Preemergence, 500 g ai/ha) | Plant response rating, Rice (rice; [9]) | Plant response rating, Rice (rice; [10]) | Plant response rating, Rice (rice; [11]) | Plant response rating, Rice (rice; [12]) | Plant response rating, Sedge, Umbrella (umbrella sedge; [9]) | Plant response rating, Sedge, Umbrella (umbrella sedge; [10]) | Plant response rating, Sedge, Umbrella (umbrella sedge; [11]) | Plant response rating, Sedge, Umbrella (umbrella sedge; [7]) | Plant response rating, Ducksalad (duck salad; [9]) | Plant response rating, Ducksalad (duck salad; [10]) | Plant response rating, Ducksalad (duck salad; [11]) | Plant response rating, Ducksalad (duck salad; [12]) | Plant response rating, Barnyardgrass (barnyardgrass [2]; [9]) | Plant response rating, Barnyardgrass (barnyardgrass [2]; [10]) | Plant response rating, Barnyardgrass (barnyardgrass [2]; [11]) | Plant response rating, Barnyardgrass (barnyardgrass [2]; [12])
30: Foxtail, Giant plant response rating (giant foxtail; [4]) | Plant response rating, Wheat (wheat; Preemergence, 500 g ai/ha)
40: Crabgrass, Large plant response rating (crabgrass; [3]) | Crabgrass, Large plant response rating (crabgrass; [4])
50: Barnyardgrass plant response rating (barnyardgrass [1]; [3])

O=S(=O)(Cc1c(C(F)(F)F)nn(CC(F)(F)F)c1Cl)c1cccc[n+]1[O-] [Compound 44]
100: Plant response rating, Crabgrass, Large (crabgrass; Preemergence, 500 g ai/ha) | Plant response rating, Foxtail, Giant (giant foxtail; Preemergence, 500 g ai/ha) | Plant response rating, Pigweed (redroot pigweed; Preemergence, 500 g ai/ha)
30: Velvetleaf plant response rating (velvetleaf; [3]) | Plant response rating, Velvetleaf (velvetleaf; Preemergence, 500 g ai/ha) | Plant response rating, Rice (rice; [7])
60: Crabgrass, Large plant response rating (crabgrass; [4]) | Plant response rating, Morningglory (morningglory; Preemergence, 500 g ai/ha)
50: Plant response rating, Sedge, Umbrella (umbrella sedge; [7])
40: Morningglory plant response rating (morningglory; [3]) | Plant response rating, Ducksalad (duck salad; [7])
80: Barnyardgrass plant response rating (barnyardgrass [1]; [3]) | Crabgrass, Large plant response rating (crabgrass; [3]) | Foxtail, Giant plant response rating (giant foxtail; [3])
90: Plant response rating, Barnyardgrass (barnyardgrass [1]; Preemergence, 500 g ai/ha) | Foxtail, Giant plant response rating (giant foxtail; [4])
20: Plant response rating, Wheat (wheat; Preemergence, 500 g ai/ha)
0: Morningglory plant response rating (morningglory; [4]) | Plant response rating, Pigweed (redroot pigweed; Postemergence, 125 g ai/ha) | Pigweed plant response rating (redroot pigweed; [4]) | Plant response rating, Velvetleaf (velvetleaf; Postemergence, 125 g ai/ha) | Velvetleaf plant response rating (velvetleaf; [4]) | Plant response rating, Wheat (wheat; Postemergence, 125 g ai/ha) | Wheat plant response rating (wheat; [3]) | Wheat plant response rating (wheat; [4]) | Plant response rating, Corn (corn; Postemergence, 125 g ai/ha) | Corn plant response rating (corn; [3]) | Corn plant response rating (corn; [4]) | Plant response rating, Corn (corn; Preemergence, 500 g ai/ha) | Plant response rating, Rice (rice; [10]) | Plant response rating, Ducksalad (duck salad; [10]) | Plant response rating, Barnyardgrass (barnyardgrass [2]; [10]) | Plant response rating, Barnyardgrass (barnyardgrass [2]; [7])
10: Plant response rating, Morningglory (morningglory; Postemergence, 125 g ai/ha) | Pigweed plant response rating (redroot pigweed; [3])
70: Plant response rating, Barnyardgrass (barnyardgrass [1]; Postemergence, 125 g ai/ha) | Barnyardgrass plant response rating (barnyardgrass [1]; [4]) | Plant response rating, Crabgrass, Large (crabgrass; Postemergence, 125 g ai/ha) | Plant response rating, Foxtail, Giant (giant foxtail; Postemergence, 125 g ai/ha)

Cc1cc[n+]([O-])c(S(=O)(=O)Cc2c(C(F)(F)F)nn(C)c2OCC(F)(F)C(F)(F)F)c1 [Compound 98]
70: Barnyardgrass plant response rating (barnyardgrass [1]; [3]) | Crabgrass, Large plant response rating (crabgrass; [3])
60: Barnyardgrass plant response rating (barnyardgrass [1]; [4]) | Plant response rating, Pigweed (redroot pigweed; Preemergence, 500 g ai/ha)
80: Foxtail, Giant plant response rating (giant foxtail; [3]) | Morningglory plant response rating (morningglory; [3])
90: Plant response rating, Crabgrass, Large (crabgrass; Preemergence, 500 g ai/ha)
100: Plant response rating, Barnyardgrass (barnyardgrass [1]; Preemergence, 500 g ai/ha) | Plant response rating, Foxtail, Giant (giant foxtail; Preemergence, 500 g ai/ha)
20: Plant response rating, Foxtail, Giant (giant foxtail; Postemergence, 125 g ai/ha) | Pigweed plant response rating (redroot pigweed; [3]) | Pigweed plant response rating (redroot pigweed; [4]) | Wheat plant response rating (wheat; [5])
50: Foxtail, Giant plant response rating (giant foxtail; [4]) | Plant response rating, Morningglory (morningglory; Preemergence, 500 g ai/ha) | Velvetleaf plant response rating (velvetleaf; [5])
30: Crabgrass, Large plant response rating (crabgrass; [4]) | Plant response rating, Corn (corn; Postemergence, 125 g ai/ha) | Corn plant response rating (corn; [3])
40: Velvetleaf plant response rating (velvetleaf; [3])
10: Plant response rating, Crabgrass, Large (crabgrass; Postemergence, 125 g ai/ha) | Plant response rating, Morningglory (morningglory; Postemergence, 125 g ai/ha)
0: Plant response rating, Barnyardgrass (barnyardgrass [1]; Postemergence, 125 g ai/ha) | Morningglory plant response rating (morningglory; [4]) | Plant response rating, Pigweed (redroot pigweed; Postemergence, 125 g ai/ha) | Plant response rating, Velvetleaf (velvetleaf; Postemergence, 125 g ai/ha) | Velvetleaf plant response rating (velvetleaf; [4]) | Plant response rating, Wheat (wheat; Postemergence, 125 g ai/ha) | Wheat plant response rating (wheat; [3]) | Wheat plant response rating (wheat; [4]) | Corn plant response rating (corn; [4]) | Plant response rating, Corn (corn; Preemergence, 500 g ai/ha) | Plant response rating, Rice (rice; [6]) | Plant response rating, Rice (rice; [7]) | Plant response rating, Sedge, Umbrella (umbrella sedge; [6]) | Plant response rating, Sedge, Umbrella (umbrella sedge; [7]) | Plant response rating, Ducksalad (duck salad; [6]) | Plant response rating, Ducksalad (duck salad; [7]) | Plant response rating, Barnyardgrass (barnyardgrass [2]; [6]) | Plant response rating, Barnyardgrass (barnyardgrass [2]; [7])
